Experimental data from the NIST ThermoML archive (doi:10.1016/j.jct.2012.11.020).

Tests used:
[1] = 100 kPa, Liquid; for viscosity: Cone and plate viscometry; for mass density: Vibrating tube method; for electrical conductivity: Alternating current cell with electrodes
[2] = xn = mol fraction of the nth substance listed; conditions: 100 kPa, Liquid, x2 = 0; for viscosity: Cone and plate viscometry; for mass density: Vibrating tube method

CC1COC(=O)O1 (configuration not stated) [4-methyl-1,3-dioxolan-2-one]
[1]
Conditions	mass density [kg/m3]	viscosity [mPa·s]
283.15 K	1216.3	4.25
293.15 K	1205.2	2.96
303.15 K	1194.5	2.2
313.15 K	1183.9	1.8
323.15 K	1173.4	1.56
333.15 K	1162.9	1.4
343.15 K	1152.3	1.26
353.15 K	1141.6	1.15

C1CC[NH2+]C1.O=[N+]([O-])[O-] [pyrrolidinium nitrate]
[1]
Conditions	electrical conductivity [S/m]	mass density [kg/m3]	viscosity [mPa·s]
283.15 K	–	1235	58.87
284.15 K	2.93	–	–
293.15 K	3.71	1228	40.29
298.15 K	4.22	–	–
303.15 K	–	1220.4	28.81
304.15 K	4.94	–	–
313.15 K	5.97	1213.1	20.91
323.15 K	7.17	1205.5	16.7
333.15 K	8.51	1197.2	13.3
343.15 K	–	1190.2	11.17
344.95 K	9.3	–	–
353.15 K	–	1182	9.28
353.65 K	10.5	–	–

CC1COC(=O)O1 (configuration not stated) [4-methyl-1,3-dioxolan-2-one] + C1CC[NH2+]C1.O=[N+]([O-])[O-]
[2]
Conditions	mass density [kg/m3]	viscosity [mPa·s]
283.15 K	1216.3	4.25
293.15 K	1205.2	2.96
303.15 K	1194.5	2.2
313.15 K	1183.9	1.8
323.15 K	1173.4	1.56
333.15 K	1162.9	1.4
343.15 K	1152.3	1.26
353.15 K	1141.6	1.15
